Data on 20 compounds can be found in patent US20260070929A1, “METHODS AND COMPOSITIONS FOR MODULATING KRAS(G12D)” (Ranok Therapeutics (Hangzhou) Co. LTD., priority 2022, published 2026).

Where two headings read alike, the source gives them in different places. Where only a bound is given, the exact number is not on record here.

Test [1] deals with ASPC1 pancreatic adenocarcinoma cells [homozygous G12D]. The test can be described thus: Cancer cell line proliferation (CellTiter-Glo), ASPC1. Format: cell-based. The settings on record: 72 hr treatment, read-out: ASPC-1 CTG (EC50). The procedure: The following cancer cell lines were employed: AGS gastric carcinoma [heterozygous G12D](ATCC, CRL-1739); A-427 lung carcinoma [heterozygous G12D](ATCC, HTB-53); ASPC1 pancreatic adenocarcinoma [homozygous G12D](ATCC, CRL-1682) and SW1990 pancreatic adenocarcinoma [homozygous G12D](ATCC CRL-2172). Cell lines were cultured essentially according to ATCC recommendations.
AGS, A-427, ASPC1, SW1990, and GP2D cells were plated in 96-well tissue culture plates at 4,000 cells/well and incubated at 37° C./5% CO2 for 72 hr in 100 μl of media. 3-fold serial dilutions of each test compound were prepared ranging from 20 μM to 1.02 nM. Each cell line was then treated with test compounds at various concentrations with a final concentration of 0.5% DMSO/well, and then incubated at 37° C./5% CO2 for 72 hr. 100 µl of CellTiter-Glo® Reagent (Promega Corporation, Madison, WI) was added to each well and processed according manufacturer's protocol. Results were analyzed and EC50 values were calculated in GraphPad 7 software.
A general note: ATP-based viability assays read luminescence as a measure of living cells.

Test [2] deals with T1, KRAS(G12D)/SOS1 (Homo sapiens, UniProt P01116, G12D).
T1 construct: purchased Cisbio 63ADK000CB17PEH
T1 sequence (P01116 1-188 isoform P01116-2 G12D): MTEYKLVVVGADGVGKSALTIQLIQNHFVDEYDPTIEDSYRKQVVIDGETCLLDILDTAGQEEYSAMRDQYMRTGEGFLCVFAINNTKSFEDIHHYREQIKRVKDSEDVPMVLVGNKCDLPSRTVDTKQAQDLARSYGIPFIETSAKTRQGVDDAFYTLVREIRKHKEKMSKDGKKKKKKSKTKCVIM
The test can be described thus: KRAS(G12D)/SOS1 homogeneous time-resolved fluorescence (HTRF) assay. The settings on record: absence of GTP; 4° C., 3 hr. It counts as binding. The method, boiled down: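 Disruption of the KRAS(G12D)/SOS1 pairing, in the absence of GTP, was read by time-resolved FRET after a 3 hr sealed incubation at 4 °C. Test compounds spanned 20 µM down to 1.02 nM in 3-fold steps. IC50 values correspond to half-maximal inhibition.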
Background: Time-resolved FRET reads energy transfer from a long-lived donor to a nearby acceptor.

Test [3] deals with AGS gastric carcinoma cells [heterozygous G12D]. The test can be described thus: Cancer cell line proliferation (CellTiter-Glo), AGS. It counts as cell-based. The settings on record: 72 hr treatment, read-out: AGS CTG (EC50). The method, boiled down:
(§1)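 4,000 cells/well; 72 hr pre-culture, 37° C./5% CO2. Cpd: 3-fold series, 20 μM–1.02 nM as prepared, 0.5% DMSO final; 72 hr exposure. Readout CellTiter-Glo; EC50 fit.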

Test [4] deals with A-427 lung carcinoma cells [heterozygous G12D]. The test can be described thus: Cancer cell line proliferation (CellTiter-Glo), A-427. Format: cell-based. To be noted: A-427 cells, 72 hr treatment, read-out: A427 CTG (EC50). The method, boiled down:
as §1

What is called EC50 is the concentration at which the effect is half-maximal. The term IC50 denotes the concentration at which inhibition is half-maximal. A high value points to weaker potency. As to `Cc1cccc2cccc(-c3ncc4c(N5CC6CCC(C5)N6)nc(OC[C@@H]5C[C@H](N6CCN(Cc7ccc8c(c7)CN(C(=O)c7cc(C(C)C)c(O)cc7O)C8)CC6)CN5C)nc4c3F)c12` [Compound 37], the EC50 in test [1], in test [3] (Homo sapiens) and in test [4] (Homo sapiens) was 100 to 1000 nM in each case. In test [2], this compound came in with a half-maximal inhibitory concentration (IC50) below 100 nM.

Consider `CCNC(=O)c1nnc(-c2cc(C(C)C)c(O)cc2O)n1-c1ccc(CN2CCC(C(=O)N3CCN([C@H]4C[C@@H](COc5nc(N6CC7CCC(C6)N7)c6cnc(-c7cc(O)cc8ccccc78)c(F)c6n5)N(C)C4)CC3)CC2)cc1` [Compound 38], for which the half-maximal effective concentration (EC50) in test [1] (Homo sapiens, ASPC1, 72 h) was 100 to 1000 nM; in test [3] (Homo sapiens) it was 100 to 1000 nM; in test [4] (Homo sapiens) it was 100 to 1000 nM. Moreover, the IC50 in test [2] was below 100 nM.

Consider `C#Cc1cccc2cccc(-c3ncc4c(N5CC6CCC(C5)N6)nc(OC[C@@H]5CC[C@H](CN6CCN(Cc7ccc8c(c7)CN(C(=O)c7cc(C(C)C)c(O)cc7O)C8)CC6)N5C)nc4c3F)c12` [Compound 39], for which the concentration giving a half-maximal response (EC50) in test [1] (Homo sapiens, ASPC1, 72 h) was above 1000 nM; in test [3] (Homo sapiens), 100 to 1000 nM; in test [4] (Homo sapiens), 100 to 1000 nM. In test [2], this compound registered an IC50 below 100 nM.

As for `CCNC(=O)c1nnc(-c2cc(C(C)C)c(O)cc2O)n1-c1ccc(CN(C)[C@@H]2CN3CCC[C@]3(COc3nc(N4CC5CCC(C4)N5)c4cnc(-c5cc(O)cc6ccccc56)c(F)c4n3)C2)cc1` [Compound 40], the EC50 is above 1000 nM in test [1] (Homo sapiens, ASPC1, 72 h); 100 to 1000 nM in test [3] (Homo sapiens); 100 to 1000 nM in test [4] (Homo sapiens). The compound also yielded an IC50 in test [2] below 100 nM.

`CCNC(=O)c1nnc(-c2cc(C(C)C)c(O)cc2O)n1-c1ccc(CN(C)[C@@H]2CN3CCC[C@@]3(COc3nc(N4CC5CCC(C4)N5)c4cnc(-c5cc(O)cc6ccccc56)c(F)c4n3)C2)cc1` [Compound 41]: the EC50 in test [1] (Homo sapiens, ASPC1, 72 h) was 100 to 1000 nM; in test [3] (Homo sapiens) it was 100 to 1000 nM; in test [4] (Homo sapiens), above 1000 nM. The same compound registered an IC50 in test [2] below 100 nM.

Take `CC(C)c1cc(-c2nnc(O)n2-c2ccc(CN(C)[C@@H]3CN4CCC[C@]4(COc4nc(N5CC6CCC(C5)N6)c5cnc(-c6cc(O)cc7ccccc67)c(F)c5n4)C3)cc2)c(O)cc1O` [Compound 42]: the concentration giving a half-maximal response (EC50) in test [1] (Homo sapiens, ASPC1, 72 h) is above 1000 nM; in test [3] (Homo sapiens), above 1000 nM; in test [4] (Homo sapiens) it was above 1000 nM. Moreover, in test [2], the half-maximal inhibitory concentration (IC50) is below 100 nM.

With `CC(C)c1cc(-c2nnc(O)n2-c2ccc(CN(C)[C@@H]3CN4CCC[C@]4(COc4nc(N5CC6CCC(C5)N6)c5cnc(-c6cc(O)cc7ccccc67)c(F)c5n4)C3)cc2)c(O)cc1O` [Compound 43], the EC50 in test [1], in test [3] and in test [4] was above 1000 nM in each case. Further, the half-inhibitory concentration (IC50) in test [2] was below 100 nM.

For the compound `CC(C)c1cc(C(=O)N2Cc3ccc(CN(C)[C@H]4CN5CCC[C@@]5(COc5nc(N6CC7CCC(C6)N7)c6cnc(-c7cc(O)cc8ccccc78)c(F)c6n5)C4)cc3C2)c(O)cc1O` [Compound 44], the EC50 in test [1] (Homo sapiens, ASPC1, 72 h) was above 1000 nM; in test [3] (Homo sapiens) it was 100 to 1000 nM; in test [4] (Homo sapiens), 100 to 1000 nM. In test [2], this compound had an IC50 below 100 nM.

For `CC(C)c1cc(C(=O)N2Cc3ccc(CN(C)[C@H]4CN5CCC[C@]5(COc5nc(N6CC7CCC(C6)N7)c6cnc(-c7cc(O)cc8ccccc78)c(F)c6n5)C4)cc3C2)c(O)cc1O` [Compound 45], the 50% effective concentration (EC50) in test [1] (Homo sapiens, ASPC1, 72 h) is above 1000 nM; in test [3] (Homo sapiens) it was 100 to 1000 nM; in test [4] (Homo sapiens) it was 100 to 1000 nM. The compound further had a half-maximal inhibitory concentration (IC50) in test [2] of 100 to 1000 nM.

On to `CC(C)c1cc(C(=O)N2Cc3ccc(CN4CCC(C(=O)N(C)[C@H]5CN6CCC[C@@]6(COc6nc(N7CC8CCC(C7)N8)c7cnc(-c8cc(O)cc9ccccc89)c(F)c7n6)C5)CC4)cc3C2)c(O)cc1O` [Compound 49], for which the EC50 is above 1000 nM in test [1] (Homo sapiens, ASPC1, 72 h); 100 to 1000 nM in test [3] (Homo sapiens); 100 to 1000 nM in test [4] (Homo sapiens). In addition, in test [2], the half-maximal inhibitory concentration (IC50) was below 100 nM.

On to `CC(C)c1cc(C(=O)N2Cc3ccc(CN4CCC(C(=O)N(C)[C@H]5CN6CCC[C@]6(COc6nc(N7CC8CCC(C7)N8)c7cnc(-c8cc(O)cc9ccccc89)c(F)c7n6)C5)CC4)cc3C2)c(O)cc1O` [Compound 50], for which the half-maximal effective concentration (EC50) in test [1] (Homo sapiens, ASPC1, 72 h) was 100 to 1000 nM; in test [3] (Homo sapiens), 100 to 1000 nM; in test [4] (Homo sapiens), 100 to 1000 nM. Further, the IC50 in test [2] was below 100 nM.

Turning to `Cc1cccc(-c2ncc3c(N4CC5CCC(C4)N5)nc(OC[C@@H]4C[C@H](N5CCN(Cc6ccc(-n7c(O)nnc7-c7cc(C(C)C)c(O)cc7O)cc6)CC5)CN4C)nc3c2F)c1C` [Compound 52], the EC50 is above 1000 nM in test [1] (Homo sapiens, ASPC1, 72 h); 100 to 1000 nM in test [3] (Homo sapiens); 100 to 1000 nM in test [4] (Homo sapiens). This compound also had a 50% inhibitory concentration (IC50) in test [2] above 1000 nM.

In the case of `CCNC(=O)c1nnc(-c2cc(C(C)C)c(O)cc2O)n1-c1ccc(CN2CCN([C@H]3C[C@@H](COc4nc(N5CC6CCC(C5)N6)c5cnc(-c6cccc(C)c6C)c(F)c5n4)N(C)C3)CC2)cc1` [Compound 53], the concentration for a half-maximal effect (EC50) was 100 to 1000 nM in test [1] (Homo sapiens, ASPC1, 72 h); below 100 nM in test [3] (Homo sapiens); 100 to 1000 nM in test [4] (Homo sapiens). In test [2], this compound came in with a half-maximal inhibitory concentration (IC50) below 100 nM.

As to `CCNC(=O)c1nnc(-c2cc(C(C)C)c(O)cc2O)n1-c1ccc(CN2CCN([C@H]3C[C@@H](COc4nc(N5CC6CCC(C5)N6)c5cnc(-c6cccc7cccc(C#N)c67)c(F)c5n4)N(C)C3)CC2)cc1` [Compound 59], the EC50 in test [1] (Homo sapiens, ASPC1, 72 h) was 100 to 1000 nM; in test [3] (Homo sapiens), below 100 nM; in test [4] (Homo sapiens) it was 100 to 1000 nM. The same compound returned an IC50 in test [2] above 1000 nM.

Consider `CCNC(=O)c1nnc(-c2cc(C(C)C)c(O)cc2O)n1-c1ccc(CN2CCN([C@H]3C[C@@H](COc4nc(N5CC6CCC(C5)N6)c5cnc(-c6ccccc6C(F)(F)F)c(F)c5n4)N(C)C3)CC2)cc1` [Compound 60], for which the EC50 in test [1] (Homo sapiens, ASPC1, 72 h) was 100 to 1000 nM; in test [3] (Homo sapiens), below 100 nM; in test [4] (Homo sapiens), 100 to 1000 nM. Also, in test [2], the IC50 is above 1000 nM.

Take `Cc1c(F)cccc1-c1ncc2c(N3CC4CCC(C3)N4)nc(OC[C@@H]3C[C@H](N4CCN(Cc5ccc6c(c5)CN(C(=O)c5cc(C(C)C)c(O)cc5O)C6)CC4)CN3C)nc2c1F` [Compound 61]: the concentration giving a half-maximal response (EC50) lay in the range of 100 to 1000 nM in test [1] (Homo sapiens, ASPC1, 72 h); 100 to 1000 nM in test [3] (Homo sapiens); 100 to 1000 nM in test [4] (Homo sapiens). In test [2], this compound came in with a half-inhibitory concentration (IC50) above 1000 nM.

In the case of `CCNC(=O)c1nnc(-c2cc(C(C)C)c(O)cc2O)n1-c1ccc(CN2CCN([C@H]3C[C@@H](COc4nc(N5CC6CCC(C5)N6)c5cnc(-c6cccc(F)c6C)c(F)c5n4)N(C)C3)CC2)cc1` [Compound 62], the EC50 was 100 to 1000 nM in test [1] (Homo sapiens, ASPC1, 72 h); below 100 nM in test [3] (Homo sapiens); below 100 nM in test [4] (Homo sapiens). The compound further showed an IC50 in test [2] above 1000 nM.

Take `CC(C)c1cc(C(=O)N2Cc3ccc(CN4CCN([C@H]5C[C@@H](COc6nc(N7CC8CCC(C7)N8)c7cnc(-c8cccc9cccc(C#N)c89)c(F)c7n6)N(C)C5)CC4)cc3C2)c(O)cc1O` [Compound 63]: the half-maximal effective concentration (EC50) was 100 to 1000 nM in test [1] (Homo sapiens, ASPC1, 72 h); 100 to 1000 nM in test [3] (Homo sapiens); below 100 nM in test [4] (Homo sapiens). The IC50 in test [2] is 100 to 1000 nM.

In the case of `CC(C)c1cc(C(=O)N2Cc3ccc(CN4CCN(C[C@H]5CC[C@@H](COc6nc(N7CC8CCC(C7)N8)c7cnc(-c8cc(O)cc9ccccc89)c(F)c7n6)N5C)CC4)cc3C2)c(O)cc1O` [Compound 64], the EC50 in test [1] (Homo sapiens, ASPC1, 72 h) is 100 to 1000 nM; in test [3] (Homo sapiens), 100 to 1000 nM; in test [4] (Homo sapiens), 100 to 1000 nM. The half-inhibitory concentration (IC50) in test [2] is below 100 nM.

As for `CCNC(=O)c1nnc(-c2cc(C(C)C)c(O)cc2O)n1-c1ccc(CN2CCN(C[C@H]3CC[C@@H](COc4nc(N5CC6CCC(C5)N6)c5cnc(-c6cc(O)cc7ccccc67)c(F)c5n4)N3C)CC2)cc1` [Compound 65], the EC50 in test [1] (Homo sapiens, ASPC1, 72 h) was 100 to 1000 nM; in test [3] (Homo sapiens) it was below 100 nM; in test [4] (Homo sapiens), below 100 nM. Moreover, the IC50 in test [2] was below 100 nM.
